# Target: T1, CCR1 (Homo sapiens, UniProt P32246)
# T1 construct: host or cells: non-adherent cells
# T1 sequence (P32246 1-355): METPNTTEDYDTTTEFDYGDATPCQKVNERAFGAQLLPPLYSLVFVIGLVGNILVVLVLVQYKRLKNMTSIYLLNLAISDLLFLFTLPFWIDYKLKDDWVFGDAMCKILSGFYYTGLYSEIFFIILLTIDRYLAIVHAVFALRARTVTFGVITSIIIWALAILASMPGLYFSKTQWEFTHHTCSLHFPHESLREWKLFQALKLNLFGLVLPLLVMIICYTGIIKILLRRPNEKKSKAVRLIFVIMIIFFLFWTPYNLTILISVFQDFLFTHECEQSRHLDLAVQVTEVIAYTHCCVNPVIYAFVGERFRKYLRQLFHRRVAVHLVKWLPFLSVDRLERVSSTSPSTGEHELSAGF
# Assay: functional cellular assay measuring calcium flux in response to MIP1α in CCR1-transfected cells (Method A or Method B)
# Assay type: cell-based
# Settings: cells stably expressing recombinant CCR1 and G-alpha-16; MIP-1alpha added at EC80; method (A: FLIPR TETRA, B: FDSS6000) not stated per compound
# Procedure: Compounds are assessed for the ability to block the interaction of CCR1 and its ligands in a functional cellular assay measuring calcium flux in response to MIP1α in CCR1-transfected cells.
# Method A: Non-adherent cells purchased from Chemicon Corporation (HTS005C), stably expressing recombinant CCR1 and G-alpha-16 are grown in RPMI 1640 medium (Mediatech 10-080-CM) supplemented with 10% heat-inactivated FBS, 0.4 mg/mL Geneticin and penicillin/streptomycin. On the day of the assay, the cells are transferred to a beaker and dye-loaded in bulk using a Fluo-4 NW Calcium Assay Kit with probenecid (Invitrogen F36205) at 0.8E6 cells/mL for 1 hour at room temperature. After 1 hour, they are seeded in a 384-well tissue culture-treated plate at a density of 20,000 cells/well. Appropriately diluted test compound is added to the well to achieve a top concentration of 3,000 nM (diluted 3-fold with 10 doses total). The final concentration of DMSO is 1%. The buffer is HBSS (Invitrogen 14025) with 20 mM HEPES at pH 7.4. The cells are allowed to incubate 1 hour in the dark at room temperature. The plates are transferred to the FLIPR TETRA where MIP-1alpha in 1% BSA is added at the EC80 final concentration. Wells +/−MIP-1alpha containing diluted DMSO instead of compound serve as the controls. Intracellular calcium flux is recorded on the FLIPR TETRA, using excitation at 470/495 nm and emission at 515/575 nm. Data are analyzed using Activity Base software.
# Method B: Non-adherent cells purchased from Chemicon Corporation (HTS005C), stably expressing recombinant CCR1 and G-alpha-16 are grown in RPMI 1640 medium (Mediatech 10-080-CM) supplemented with 10% FBS, 0.4 mg/mL Geneticin and penicillin/streptomycin. On the day of the assay, the cells are loaded with Calcium 4 dye (Molecular Devices R7448) with Probenecid (Invitrogen P346400) at 8E5 cells/mL for 1 hour at room temperature. After 1 hour, they are seeded in a 384-well tissue culture-treated plate at a density of 20,000 cells/well. Appropriately diluted test compound is added to the well to achieve a top concentration of 3,000 nM (diluted 4-fold with 10 doses total). The final concentration of DMSO is 1%. The buffer is HBSS (Invitrogen 14025) with 20 mM HEPES at pH 7.4. The cells incubate 30 minutes at 37 C and then 30 minutes at room temperature. The plates are transferred to the HAMAMATSU FDSS6000 where MIP-1alpha in 1% BSA is added at the EC80 final concentration. All plates must be read within 4 hours of the start of dye-loading. Wells +/−MIP-1alpha containing diluted DMSO instead of compound serve as the controls. Data are analyzed using Activity Base software.
row,IC50,Structure (SMILES)
1,35 nM,CCC[C@H](NC(=O)c1cnn(-c2ccc(Cl)cc2)c1C)c1ccc(S(C)(=O)=O)nc1 (stereo in doubt) [1-(4-Chloro-phenyl)-5-methyl-1H-pyrazole-4-carboxylic acid [1-(6-methanesulfonyl-pyridin-3-yl)-butyl]-amide]
2,54 nM,"Cc1c(C(=O)N[C@@H](C)c2cccc3ccccc23)cnn1-c1ccc(Cl)c(Cl)c1 [1-(3,4-Dichloro-phenyl)-5-methyl-1H-pyrazole-4-carboxylic acid ((S)-1-naphthalen-1-yl-ethyl)-amide]"
3,0.6 nM,"CCCC(NC(=O)c1cnn(-c2ccc(Cl)c(Cl)c2)c1C)c1ccnc(Br)c1 (stereo not shown) [1-(3,4-Dichloro-phenyl)-5-methyl-1H-pyrazole-4-carboxylic acid [1-(2-bromo-pyridin-4-yl)-butyl]-amide]"
4,0.3 nM,"CCCC(NC(=O)c1cnn(-c2ccc(Cl)c(Cl)c2)c1C)c1ccnc(S(C)(=O)=O)c1 (stereo not shown) [1-(3,4-Dichloro-phenyl)-5-methyl-1H-pyrazole-4-carboxylic acid [1-(2-methanesulfonyl-pyridin-4-yl)-butyl]-amide]"
5,1 nM,"CCCC(NC(=O)c1cnn(-c2ccc(Cl)c(Cl)c2)c1C)c1cncc(S(C)(=O)=O)c1 (stereo not shown) [1-(3,4-Dichloro-phenyl)-5-methyl-1H-pyrazole-4-carboxylic acid [1-(5-methanesulfonyl-pyridin-3-yl)-butyl]-amide]"
6,5.3 nM,"CCCC(NC(=O)c1cnn(-c2ccc(Cl)c(Cl)c2)c1C)c1ccc(S(C)(=O)=O)nc1 (stereo not shown) [1-(3,4-Dichloro-phenyl)-5-methyl-1H-pyrazole-4-carboxylic acid [1-(6-methanesulfonyl-pyridin-3-yl)-butyl]-amide]"
7,41 nM,"C=CCC[C@H](NC(=O)c1cnn(-c2ccc(Cl)c(Cl)c2)c1C)c1cccc(Br)c1 [1-(3,4-Dichloro-phenyl)-5-methyl-1H-pyrazole-4-carboxylic acid [(S)-1-(3-bromo-phenyl)-pent-4-enyl]-amide]"
8,16 nM,"CC[C@H](NC(=O)c1cnn(-c2ccc(Cl)c(Cl)c2)c1C)c1cccc(Br)c1 [1-(3,4-Dichloro-phenyl)-5-methyl-1H-pyrazole-4-carboxylic acid [(S)-1-(3-bromo-phenyl)-propyl]-amide]"
9,28 nM,"Cc1c(C(=O)N[C@@H](C)c2ccc(F)c(C(F)(F)F)c2)cnn1-c1ccc(Cl)c(Cl)c1 [1-(3,4-Dichloro-phenyl)-5-methyl-1H-pyrazole-4-carboxylic acid [(S)-1-(4-fluoro-3-trifluoromethyl-phenyl)-ethyl]-amide]"
10,5.9 nM,CCCC(NC(=O)c1cnn(-c2ccc(F)c(Cl)c2)c1C)c1cncc(S(C)(=O)=O)c1 (stereo not shown) [1-(3-Chloro-4-fluoro-phenyl)-5-methyl-1H-pyrazole-4-carboxylic acid [1-(5-methanesulfonyl-pyridin-3-yl)-butyl]-amide]
11,71 nM,CCCC(NC(=O)c1cnn(-c2ccc(F)c(Cl)c2)c1C)c1ccc(S(C)(=O)=O)nc1 (stereo not shown) [1-(3-Chloro-4-fluoro-phenyl)-5-methyl-1H-pyrazole-4-carboxylic acid [1-(6-methanesulfonyl-pyridin-3-yl)-butyl]-amide]
12,9.3 nM,CCCC(NC(=O)c1cnn(-c2ccc(Br)cc2)c1C)c1cncc(S(C)(=O)=O)c1 (stereo not shown) [1-(4-Bromo-phenyl)-5-methyl-1H-pyrazole-4-carboxylic acid [1-(5-methanesulfonyl-pyridin-3-yl)-butyl]-amide]
13,37 nM,CCCC(NC(=O)c1cnn(-c2ccc(Cl)c(F)c2)c1C)c1cncc(S(C)(=O)=O)c1 (stereo not shown) [1-(4-Chloro-3-fluoro-phenyl)-5-methyl-1H-pyrazole-4-carboxylic acid [1-(5-methanesulfonyl-pyridin-3-yl)-butyl]-amide]
14,91 nM,CCCC(NC(=O)c1cnn(-c2ccc(Cl)c(F)c2)c1C)c1ccc(S(C)(=O)=O)nc1 (stereo not shown) [1-(4-Chloro-3-fluoro-phenyl)-5-methyl-1H-pyrazole-4-carboxylic acid [1-(6-methanesulfonyl-pyridin-3-yl)-butyl]-amide]
15,16 nM,CCC[C@H](NC(=O)c1cnn(-c2ccc(Cl)cc2)c1CO)c1cccc(Br)c1 [1-(4-Chloro-phenyl)-5-hydroxymethyl-1H-pyrazole-4-carboxylic acid [(S)-1-(3-bromo-phenyl)-butyl]-amide]
16,6.5 nM,CCC[C@H](NC(=O)c1cnn(-c2ccc(Cl)cc2)c1CO)c1cccc(C(F)(F)F)c1 [1-(4-Chloro-phenyl)-5-hydroxymethyl-1H-pyrazole-4-carboxylic acid [(S)-1-(3-trifluoromethyl-phenyl)-butyl]-amide]
17,1.1 nM,CCCC(NC(=O)c1cnn(-c2ccc(Cl)cc2)c1C)c1ccnc(Br)c1 (stereo not shown) [1-(4-Chloro-phenyl)-5-methyl-1H-pyrazole-4-carboxylic acid [1-(2-bromo-pyridin-4-yl)-butyl]-amide]
18,12 nM,CCCC(NC(=O)c1cnn(-c2ccc(Cl)cc2)c1C)c1ccnc(S(=O)(=O)C2CC2)c1 (stereo not shown) [1-(4-Chloro-phenyl)-5-methyl-1H-pyrazole-4-carboxylic acid [1-(2-cyclopropanesulfonyl-pyridin-4-yl)-butyl]-amide]
19,4.5 nM,CCCC(NC(=O)c1cnn(-c2ccc(Cl)cc2)c1C)c1ccnc(S(=O)(=O)N(C)C)c1 (stereo not shown) [1-(4-Chloro-phenyl)-5-methyl-1H-pyrazole-4-carboxylic acid [1-(2-dimethylsulfamoyl-pyridin-4-yl)-butyl]-amide]
20,5.7 nM,CCCC(NC(=O)c1cnn(-c2ccc(Cl)cc2)c1C)c1ccnc(S(=O)(=O)CC)c1 (stereo not shown) [1-(4-Chloro-phenyl)-5-methyl-1H-pyrazole-4-carboxylic acid [1-(2-ethanesulfonyl-pyridin-4-yl)-butyl]-amide]
21,2.3 nM,CCCC(NC(=O)c1cnn(-c2ccc(Cl)cc2)c1C)c1ccnc(S(C)(=O)=O)c1 (stereo not shown) [1-(4-Chloro-phenyl)-5-methyl-1H-pyrazole-4-carboxylic acid [1-(2-methanesulfonyl-pyridin-4-yl)-butyl]-amide]
22,2.9 nM,CCCC(NC(=O)c1cnn(-c2ccc(Cl)cc2)c1C)c1ccnc(S(=O)(=O)NC)c1 (stereo not shown) [1-(4-Chloro-phenyl)-5-methyl-1H-pyrazole-4-carboxylic acid [1-(2-methylsulfamoyl-pyridin-4-yl)-butyl]-amide]
23,51 nM,CCCC(NC(=O)c1cnn(-c2ccc(Cl)cc2)c1C)c1ccnc(S(N)(=O)=O)c1 (stereo not shown) [1-(4-Chloro-phenyl)-5-methyl-1H-pyrazole-4-carboxylic acid [1-(2-sulfamoyl-pyridin-4-yl)-butyl]-amide]
24,4.1 nM,CCCC(NC(=O)c1cnn(-c2ccc(Cl)cc2)c1C)c1cncc(Br)c1 (stereo not shown) [1-(4-Chloro-phenyl)-5-methyl-1H-pyrazole-4-carboxylic acid [1-(5-bromo-pyridin-3-yl)-butyl]-amide]
25,85 nM,CCCC(NC(=O)c1cnn(-c2ccc(Cl)cc2)c1C)c1cncc(S(=O)(=O)C2CC2)c1 (stereo not shown) [1-(4-Chloro-phenyl)-5-methyl-1H-pyrazole-4-carboxylic acid [1-(5-cyclopropanesulfonyl-pyridin-3-yl)-butyl]-amide]
26,4.9 nM,CCCC(NC(=O)c1cnn(-c2ccc(Cl)cc2)c1C)c1cncc(S(=O)(=O)N(C)C)c1 (stereo not shown) [1-(4-Chloro-phenyl)-5-methyl-1H-pyrazole-4-carboxylic acid [1-(5-dimethylsulfamoyl-pyridin-3-yl)-butyl]-amide]
27,94 nM,CCCC(NC(=O)c1cnn(-c2ccc(Cl)cc2)c1C)c1cncc(S(=O)(=O)CC)c1 (stereo not shown) [1-(4-Chloro-phenyl)-5-methyl-1H-pyrazole-4-carboxylic acid [1-(5-ethanesulfonyl-pyridin-3-yl)-butyl]-amide]
28,15 nM,CCCC(NC(=O)c1cnn(-c2ccc(Cl)cc2)c1C)c1cncc(S(C)(=O)=O)c1 (stereo not shown) [1-(4-Chloro-phenyl)-5-methyl-1H-pyrazole-4-carboxylic acid [1-(5-methanesulfonyl-pyridin-3-yl)-butyl]-amide]

# From patent publication US8293917B2, “Pyrazole compounds as CCR1 antagonists” (Boehringer Ingelheim International GmbH, priority 2008, dated 2012)
